For test [1], the system named is bacterial cells compared to human skin cells. The test can be described thus: Selectivity for bacteria compared to human skin cells. The test is classed as cell-based. Here is the method: (§1) For the further investigation of the exemplary compounds (Table 2), the following protocol was adopted: • (i) Bacteria (S. aureus BAA-44 and E. coli 25922) were grown in brain heart infusion (BHI) broth until they reached the stationary phase of growth. • (ii) The cells were harvested by centrifugation (3000 g for 15 min) with a table centrifuge, washed with 10 mM PBS at pH 7.4 containing 2.7 mM KCl and 0.14 M NaCl and suspended in PBS at an optical density of 0.7 at 650 nm corresponding to 10^8-10^9 cells/ml. • (iii) The bacteria, at the desired cell density (˜10^8 cells/ml) were incubated for 5 min in the dark with various concentrations of the exemplary compounds. • (iv) At the end of the incubation period the cells were washed three times with PBS, suspended in PBS, transferred into a 96-well microtitre plate (200 μl/well) and illuminated for 15 min with the Waldmann light source (15.2 mW/cm^2; 13.7 J/cm^2). The cells were illuminated from the bottom of the plate laying it on the glass cover of the lamp. • (v) After illumination, cell survival was determined by plating serially diluted aliquots of treated and untreated (i.e. no exemplary compound or light present) cells onto brain heart agar (BHA) and counting the number of colonies after 18-24 h incubation at 37° C.
(§2) Test compounds were screened for toxicity against cultured human skin cells using normal human epidermal keratinocytes (NHEK) and normal human dermal fibroblasts (NHDF), purchased from CellSystems Biotechnologie GmbH, Germany.
The NHEK and NHDF cells were used between passages 3 and 10. The cells were seeded with 7.5 and/or 15×10^4 cells/well (microtitreplate) and allowed to attach overnight in an incubator (37° C., 5% CO2). After incubation with different concentrations of the selected photosensitisers, the cells were illuminated for fifteen minutes (Light source 236, Waldmann; 15.2 mW/cm^2, 13.7 J/cm^2) and then incubated for 24 hours in the dark.
(§3) Phototoxicity was tested by standard MTT-assay (Mossman et al., 1983, Immunological Methods 65:55-63). MTT is an indicator of metabolically active cells. Dependent on enzyme activity in mitochondria a colour reaction can be visualised, which can be measured by ELISA reader (540 nm). The cell viability data were normalised, i.e. the OD values of cells after PDT without photosensitisers were adjusted to one. Each experiment was repeated three times.

The test system of test [2] is normal human dermal fibroblasts (NHDF). The test can be described thus: Toxicity against human skin cells, MTT-assay. The format is cell-based. As to the method: as §2
(§4) The NHEK and NHDF cells were used between passages 3 and 10. The cells were seeded with 7.5 and/or 15×10^4 cells/well (microtitreplate) and allowed to attach overnight in an incubator (37° C., 5% CO2). […]
as §3
A general note: Tetrazolium dyes change colour on reduction, which living cells bring about.

Test [3] concerns normal human epidermal keratinocytes (NHEK). The test can be described thus: Toxicity against human skin cells, MTT-assay. The test is classed as cell-based. Here is the method:
as §2, §4, §3

Test [4] has as its system S. aureus ATCC BAA-44 (a methicillin resistant S. aureus). The test can be described thus: Cell survival (colony forming unit) with or without illumination. Particulars: S. aureus. The test is classed as cell-based, Staphylococcus aureus. Here is the method:
(§5) The toxic effects of exemplary compounds of the invention against two bacterial strains, the Gram negative bacterium Escherichia coli (strain ATCC 25922) and the Gram positive bacterium Staphylococcus aureus (methicillin-resistant strain ATTC BAA-44), were evaluated by measuring the extent of growth inhibition (bacteriostatic effect) and growth […] (cytocidal effect) in the dark and upon light exposure. Initial compound screening was undertaken using white light [390-740 nm] (150 mW/cm^2) for various timepoints of a concentration of 3 μM (see Table 1). Further experiments were undertaken on those compounds identified from this initial screen using a light source emitting light at a wavelength between 417-420 nm at 15.2 mW/cm^2, 13.68 J/cm^2 (Waldmann Eclairage SA, France) (see Table 20.
as §1
the above colony forming unit (CFU) protocol was also used to investigate the photodynamic activity of very low concentrations of the compounds of the invention.

Test [5] relates to Staphylococcus aureus (methicillin-resistant strain ATTC BAA-44). The test can be described thus: Initial screening: growth inhibition after white light illumination. Particulars: Staphylococcus aureus. The test is classed as cell-based. As to the method:
as §5
(§6) The following protocol was used for the initial screening of the exemplary compounds (Table 1) (see Reddi et al., 2002, Photochem. Photobiol. 75(5):462-470): • (i) E. coli and S. aureus cells were grown overnight on brain heart infusion agar, resuspended in brain heart infusion broth, harvested by centrifugation (3000 g for 15 minutes) and washed once with phosphate buffered saline (PBS) at pH 7.4 consisting 2.7 mM KCl and 0.14 M NaCl. • (ii) The cells were then resuspended in PBS to an optical density at 650 nm of 0.7, which corresponds to a density of 10^8 to 10^9 cells/ml. • (iii) Next, the cells were incubated in PBS in the dark for 5 minutes with 3.0 μM of the compound to be tested. • (iv) After dark incubation, cells were illuminated with white light (wavelength: 390 to 740 nm) (150 mW/cm^2) for up to 30 minutes. During illumination, the cells were kept at 37° C. and magnetically stirred. • (v) Finally, treated and untreated (control) cells were diluted in brain heart infusion broth and maintained at […] while the absorbance of the suspension at 650 nm was monitored at predetermined time points for determining growth curves.
(§7) The percent of growth inhibition in the treated cells was calculated by the following equation: [1−(Ax−A0)/(Ac−A0)]×100 where Ax Ac are the absorbances measured after 3 hours incubation, for the treated and control cell suspensions, respectively, and A0 represents the initial absorbance.

The test system of test [6] is Escherichia coli (strain ATCC 25922). The description is as above. The format is cell-based. Particulars: Escherichia coli. Here is the method: as §5, §6, §7
Where [7] appears, read: dark toxicity, 1 μM, no illumination.
Where [8] appears, read: dark toxicity, 10 μM, no illumination.
Setting [9] is: photodynamic activity (light toxicity), 0.01 μM, illumination 15 min.
[10] abbreviates: photodynamic activity (light toxicity), 0.1 μM, illumination 15 min.
The mark [11] stands for this setting: photodynamic activity (light toxicity), 1 μM, illumination 15 min.
Where [12] appears, read: dark toxicity (no illumination), 10 μM.
[13] abbreviates: photodynamic activity, 0.1 μM, illumination 15 min.
The mark [14] stands for this setting: photodynamic activity, 1 μM, illumination 15 min.
The mark [15] stands for this setting: dark toxicity (no illumination), 1 μM.

Like-named read-outs stand apart in the source and are kept apart here.

The results in this text go back to patent US8084602B2, “Porphyrin derivatives and their use in photodynamic therapy” (Destiny Pharma Limited, priority 2002, dated 2011).

As a reminder, the inhibition is how much of the control response was suppressed.

Take `C[N+](C)(C)CCCOc1ccc(-c2c3nc(c(-c4ccc(OCCC[N+](C)(C)C)cc4)c4ccc([nH]4)c(-c4ccc(OCCC[N+](C)(C)C)cc4)c4nc(c(-c5ccc(OCCC[N+](C)(C)C)cc5)c5ccc2[nH]5)C=C4)C=C3)cc1.[Cl-].[Cl-].[Cl-].[Cl-]` [Compound 1, 5,10,15,20-tetrakis-[4-(3-Trimethylammonio-propyloxy)-phenyl]-porphyrin tetrachloride, reference compound]: the “toxicity to bacterial cells compared to human cells” value in test [1] was “equal toxicity to bacterial and human cells”. Moreover, the Survival in test [2] (setting [7]) amounted to 100%; in test [2] (setting [8]), 92%; in test [2] (setting [9]), 100%; in test [2] (setting [10]), 39%; in test [2] (setting [11]) it was 2%; in test [3] (setting [7]), 100%. The Survival in test [3] (setting [8]) came to 83%; in test [3] (setting [9]), 94%; in test [3] (setting [10]), 52%; in test [3] (setting [11]), 0.4%. In addition, the Log reduction in test [4] (setting [12]) is on record as <1 (<10^−1); in test [4] (setting [13]) it was <1 (<10^−1); in test [4] (setting [14]), >6 (>10^−6).
For `CCCCCCCCCCCOc1ccc(-c2c3nc(c(-c4ccc(OCCC[N+](C)(C)C)cc4)c4ccc([nH]4)c(-c4ccc(OCCC[N+](C)(C)C)cc4)c4nc(c(-c5ccc(OCCC[N+](C)(C)C)cc5)c5ccc2[nH]5)C=C4)C=C3)cc1.[Cl-].[Cl-].[Cl-]` [Compound 3, 5,10,15-tris-[4-(3-Trimethylammonio-propyloxy)-phenyl]-20-(4-undecyloxy-phenyl)-porphyrin trichloride, reference compound], the Log reduction in test [4] (setting [15]) is on record as <1 (<10^−1); in test [4] (setting [12]) it was >3 (>10^−3); in test [4] (setting [14]), >3 (>10^−3); in test [4] (photodynamic activity, 10 μM, illumination 15 min) it was >6 (>10^−6). For the same compound, the inhibition at 3 µM came to 100% in test [5] (BAA44, 5 min, read-out: Growth inhibition (%), S. aureus, 5 min incubation, illumination time 5 min); 21% in test [5] (BAA44, read-out: Growth inhibition (%), S. aureus, 5 min incubation, illumination time 0 min); 83% in test [5] (BAA44, read-out: Growth inhibition (%), S. aureus, 5 min incubation, illumination time 1 min); 100% in test [5] (BAA44, read-out: Growth inhibition (%), S. aureus, 5 min incubation, illumination time 10 min); 100% in test [5] (BAA44, read-out: Growth inhibition (%), S. aureus, 5 min incubation, illumination time 15 min); 100% in test [5] (BAA44, read-out: Growth inhibition (%), S. aureus, 5 min incubation, illumination time 30 min). Moreover, the inhibition at 3 µM in test [6] (ATCC25922, 5 min, read-out: Growth inhibition (%), E. coli, 5 min incubation, illumination time 5 min) came to 99%; in test [6] (ATCC25922, read-out: Growth inhibition (%), E. coli, 5 min incubation, illumination time 0 min) it was 5%; in test [6] (ATCC25922, read-out: Growth inhibition (%), E. coli, 5 min incubation, illumination time 1 min), 68%; in test [6] (ATCC25922, read-out: Growth inhibition (%), E. coli, 5 min incubation, illumination time 10 min), 100%; in test [6] (ATCC25922, read-out: Growth inhibition (%), E. coli, 5 min incubation, illumination time 15 min), 99%; in test [6] (ATCC25922, read-out: Growth inhibition (%), E. coli, 5 min incubation, illumination time 30 min) it was 99%.
As for `CCCCCCCCCCCc1c2nc(cc3ccc([nH]3)c(-c3cc(OCCC[N+](C)(C)C)cc(OCCC[N+](C)(C)C)c3)c3nc(cc4ccc1[nH]4)C=C3)C=C2.[Cl-].[Cl-]` [Compound 6, 5-[3,5-bis-(3-Trimethylammonio-propyloxy)-phenyl]-15-undecyl-porphyrin dichloride], the Log reduction in test [4] (setting [15]) is on record as 1 (<10^−1); in test [4] (setting [12]) it was 2 (10^−2); in test [4] (setting [13]), 3 (10^−3); in test [4] (setting [14]) it was 6 (10^−6). Besides, the inhibition at 3 µM came out at 100% in test [5] (BAA44, 5 min, S. aureus, 5 min incubation, illumination time 5 min, read-out: Growth inhibition (%)); 29% in test [5] (BAA44, S. aureus, 5 min incubation, illumination time 0 min, read-out: Growth inhibition (%)); 100% in test [5] (BAA44, S. aureus, 5 min incubation, illumination time 1 min, read-out: Growth inhibition (%)); 100% in test [5] (BAA44, S. aureus, 5 min incubation, illumination time 10 min, read-out: Growth inhibition (%)); 100% in test [5] (BAA44, S. aureus, 5 min incubation, illumination time 15 min, read-out: Growth inhibition (%)); 100% in test [5] (BAA44, S. aureus, 5 min incubation, illumination time 30 min, read-out: Growth inhibition (%)). Further, the inhibition at 3 µM was 30% in test [6] (ATCC25922, 5 min, E. coli, 5 min incubation, illumination time 5 min, read-out: Growth inhibition (%)); 9% in test [6] (ATCC25922, E. coli, 5 min incubation, illumination time 0 min, read-out: Growth inhibition (%)); 17% in test [6] (ATCC25922, E. coli, 5 min incubation, illumination time 1 min, read-out: Growth inhibition (%)); 54% in test [6] (ATCC25922, E. coli, 5 min incubation, illumination time 10 min, read-out: Growth inhibition (%)); 69% in test [6] (ATCC25922, E. coli, 5 min incubation, illumination time 15 min, read-out: Growth inhibition (%)); 93% in test [6] (ATCC25922, E. coli, 5 min incubation, illumination time 30 min, read-out: Growth inhibition (%)).
